Test results reported in patent US6034251A, “Phenyl-alkyl-imidazoles” (Schering Corporation, priority 1998, dated 2000).

Biological target: T1, H3 receptors (Cavia porcellus, UniProt Q9JI35)
T1 construct: The source of the H3 receptors in this experiment was guinea pig brain; from tissue; host or cells: guinea pig brain membranes
Experiment: H3 Receptor Binding Assay
Details: guinea pig brain membranes; 3 nM [3H]R-α-methylhistamine or 3 nM [3H]Nα-methylhistamine; 50 mM Tris pH 7.5, 30° C., 30 min
Method: The source of the H3 receptors in this experiment was guinea pig brain. The animals weighed 400-600 g. The brain tissue was homogenized using a Polytron in a solution of 50 mM Tris, pH 7.5. The final concentration of tissue in the homogenization buffer was 10% w/v. The homogenates were centrifuged at 1,000×g for 10 min. in order to remove clumps of tissue and debris. The resulting supernatants were then centrifuged at 50,000×g for 20 min. in order to sediment the membranes, which were next washed three times in homogenization buffer (50,000×g for 20 min. each). The membranes were frozen and stored at -70° C. until needed.
All compounds to be tested were dissolved in DMSO and then diluted into the binding buffer (50 mM Tris, pH 7.5) such that the final concentration was 2 μg/ml with 0.1% DMSO. Membranes were then added (400 μg of protein) to the reaction tubes. The reaction was started by the addition of 3 nM [^3 H]R-α-methylhistamine (8.8 Ci/mmol) or 3 nM [^3 H]N^α -methylhistamine (80 Ci/mmol) and continued under incubation at 30° C. for 30 min. Bound ligand was separated from unbound ligand by filtration, and the amount of radioactive ligand bound to the membranes was quantitated by liquid scintillation spectrometry. All incubations were performed in duplicate and the standard error was always less than 10%. Compounds that inhibited more than 70% of the specific binding of radioactive ligand to the receptor were serially diluted to determine a Ki (nM).

T1 sequence (Q9JI35 whole entry): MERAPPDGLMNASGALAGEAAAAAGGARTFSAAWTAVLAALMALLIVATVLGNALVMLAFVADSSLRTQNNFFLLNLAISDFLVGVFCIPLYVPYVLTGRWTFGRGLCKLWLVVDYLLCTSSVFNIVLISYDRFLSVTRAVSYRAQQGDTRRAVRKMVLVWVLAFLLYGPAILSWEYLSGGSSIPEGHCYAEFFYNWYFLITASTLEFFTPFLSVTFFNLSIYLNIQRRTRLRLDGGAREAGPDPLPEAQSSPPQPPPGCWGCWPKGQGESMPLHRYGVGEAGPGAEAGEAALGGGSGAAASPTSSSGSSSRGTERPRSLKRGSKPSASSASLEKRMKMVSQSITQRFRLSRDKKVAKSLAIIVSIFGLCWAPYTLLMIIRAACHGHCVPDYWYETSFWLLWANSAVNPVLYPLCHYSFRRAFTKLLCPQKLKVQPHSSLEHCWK

First: CC(CCc1ccccc1)NC(=O)/C=C/c1ccc(Cc2c[nH]cn2)cc1 (stereo not drawn) [Compound 23]
Second: O=C(/C=C/c1ccc(Cc2c[nH]cn2)cc1)NCCc1ccccc1 [Compound 29]
The Ki of the first is 2.2-fold higher: 0.037 µM for the first, 0.017 µM for the second.

Compared with `O=C(/C=C/c1ccc(Cc2c[nH]cn2)cc1)Nc1cccc(Cl)c1` [Compound 31], `O=C(/C=C/c1ccc(Cc2c[nH]cn2)cc1)Nc1cccc(F)c1` [Compound 35] is 4-fold lower in Ki: 0.004 µM for the first, 0.001 µM for the second. The second binds more tightly here.

`O=C(/C=C/c1ccc(Cc2c[nH]cn2)cc1)Nc1cccc(OC(F)(F)F)c1` [Compound 37] and `O=C(/C=C/c1ccc(Cc2c[nH]cn2)cc1)Nc1ccc(OC(F)(F)F)cc1` [Compound 38] are within 1.5-fold of each other in Ki: 0.008 µM for the first, 0.01 µM for the second.

Going from `Cn1cnc(Cc2ccc(/C=C/C(=O)Nc3ccc(Cl)cc3)cc2)c1` [Compound 13] to `O=C(/C=C/c1ccc(Cc2c[nH]cn2)cc1)Nc1ccc(Cl)cc1` [Compound 1], the Ki falls from 0.27 µM to 0.002 µM (140-fold).

Compared with `O=C(/C=C/c1ccc(Cc2c[nH]cn2)cc1)Nc1ccc(F)cc1` [Compound 36], `O=C(/C=C/c1ccc(Cc2c[nH]cn2)cc1)Nc1ccccc1` [Compound 6] is 2.5-fold lower in Ki: 0.005 µM for the first, 0.002 µM for the second. The second binds more tightly here.

Going from `CN(CCc1ccc(Cl)cc1)C(=O)/C=C/c1ccc(Cc2c[nH]cn2)cc1` [Compound 5] to `O=C(/C=C/c1ccc(Cc2c[nH]cn2)cc1)NCCc1ccc(Cl)cc1` [Compound 3], the Ki falls from 0.035 µM to 0.007 µM (5-fold). The second binds more tightly here.

`O=C(/C=C/c1ccc(Cc2c[nH]cn2)cc1)NCCc1ccccc1F` [Compound 18] and `O=C(/C=C/c1ccc(Cc2c[nH]cn2)cc1)NCCc1ccccc1Cl` [Compound 19] are within 1.5-fold of each other in Ki: 0.01 µM for the first, 0.012 µM for the second.

Compared with `O=C(/C=C/c1ccc(Cc2c[nH]cn2)cc1)NCc1ccc2ccccc2c1` [Compound 26], `O=C(/C=C/c1ccc(Cc2c[nH]cn2)cc1)NCc1ccc(Cl)cc1` [Compound 2] is 8.7-fold lower in Ki: 0.2 µM for the first, 0.023 µM for the second.

First: O=C(/C=C/c1ccc(Cc2c[nH]cn2)cc1)NC1CCCc2ccccc21 (stereo not drawn) [Compound 24]
Second: CC(CNC(=O)/C=C/c1ccc(Cc2c[nH]cn2)cc1)c1ccccc1 (stereo not drawn) [Compound 10]
The Ki of the first is 12-fold higher: 0.22 µM for the first, 0.019 µM for the second.

Compared with `Cc1cc(C)cc(NC(=O)/C=C/c2ccc(Cc3c[nH]cn3)cc2)c1` [Compound 34], `O=C(/C=C/c1ccc(Cc2c[nH]cn2)cc1)Nc1cc(Cl)cc(Cl)c1` [Compound 30] is 6-fold higher in Ki: 0.002 µM for the first, 0.012 µM for the second.

Compared with `O=C(/C=C/c1ccc(Cc2c[nH]cn2)cc1)NCCCN1CCCC1` [Compound 20], `CN1CCCC1CCNC(=O)/C=C/c1ccc(Cc2c[nH]cn2)cc1` (stereo not drawn) [Compound 27] is 1.7-fold higher in Ki: 0.58 µM for the first, 1 µM for the second.

Compared with `O=C(/C=C/c1ccc(Cc2c[nH]cn2)cc1)NCCc1cccnc1` [Compound 17], `O=C(/C=C/c1ccc(Cc2c[nH]cn2)cc1)NCCc1cccc(F)c1` [Compound 16] is 19-fold lower in Ki: 0.19 µM for the first, 0.01 µM for the second.

`COc1ccc(CCNC(=O)/C=C/c2ccc(Cc3c[nH]cn3)cc2)cc1` [Compound 11] and `Cc1ccc(CCNC(=O)/C=C/c2ccc(Cc3c[nH]cn3)cc2)cc1` [Compound 22] are within 1.5-fold of each other in Ki: 0.007 µM for the first, 0.006 µM for the second.

Going from `O=C(/C=C/c1ccc(Cc2c[nH]cn2)cc1)NCCc1ccc(Cl)cc1Cl` [Compound 28] to `O=C(/C=C/c1ccc(Cc2c[nH]cn2)cc1)NCCc1cccc(Cl)c1` [Compound 8], the Ki falls from 0.036 µM to 0.011 µM (3.3-fold).

Going from `O=C(/C=C/c1ccc(Cc2c[nH]cn2)cc1)NCc1ccco1` [Compound 21] to `O=C(/C=C/c1ccc(Cc2c[nH]cn2)cc1)NCCc1ccsc1` [Compound 15], the Ki falls from 0.11 µM to 0.012 µM (9.2-fold). The second binds more tightly here.

`N#Cc1cccc(NC(=O)/C=C/c2ccc(Cc3c[nH]cn3)cc2)c1` [Compound 32] and `COc1cccc(NC(=O)/C=C/c2ccc(Cc3c[nH]cn3)cc2)c1` [Compound 33] are within 1.5-fold of each other in Ki: 0.004 µM for the first, 0.003 µM for the second.

Going from `CN(C(=O)/C=C/c1ccc(Cc2c[nH]cn2)cc1)c1ccc(Cl)cc1` [Compound 4] to `O=C(/C=C/c1ccc(Cc2c[nH]cn2)cc1)c1ccc(Cl)cc1` [Compound 25], the Ki rises from 0.045 µM to 0.4 µM (8.9-fold).

First: CC(Cc1ccc(Cl)cc1)NC(=O)/C=C/c1ccc(Cc2c[nH]cn2)cc1 (stereo not drawn) [Compound 9]
Second: O=C(/C=C/c1ccc(Cc2c[nH]cn2)cc1)NCCc1c[nH]c2ccccc12 [Compound 12]
The Ki of the first is 4.5-fold lower: 0.01 µM for the first, 0.045 µM for the second. The first binds more tightly here.

`O=C(/C=C/c1ccc(Cc2c[nH]cn2)cc1)NC1CCCCC1` [Compound 7] showed a Ki of 0.026 µM.

Tested on: histamine H3 receptor
Experiment: not given
Details: mice, electrically induced convulsions; cited from earlier work

In the case of `S=C(NC1CCCCC1)N1CCC(c2cnc[nH]2)CC1` [thioperamide], the “duration of each phase of convulsion” value is given as “decreased”.

For `S=C(NC1CCCCC1)N1CCC(c2cnc[nH]2)CC1` [thioperamide], the electroconvulsive threshold is listed as “raised”.
